# Reference: patent publication US20040067561A1, “Process for the production of L-lysine using coryneform bacteria” (priority 2002, published 2004)
# Test system: Corynebacterium glutamicum strain DSM13994_Hdap_s
# Test: Screening on LB agar plates containing 4-hydroxydiaminopimelic acid (growth of colonies)
# Format: cell-based
# Conditions: 10 g/l in LB agar, observed over 48 hours; UV mutant clone DSM13994_Hdap_s compared to parent DSM13994
# Description: For screening on colonies that are sensitive to 4-hydroxy-diaminopimelic acid, the strain DSM13994 after UV mutagenesis (Sambrook et al., Molecular Cloning: A Laboratory Manual. 2nd Edition, Cold Spring Harbor, New York, 1989) is plated out on LB agar plates containing 4-hydroxydiaminopimelic acid. The agar plates are supplemented with 10 g/l of 4-hydroxydiaminopimelic acid. The growth of the colonies is observed over 48 hours. At this concentration mutants sensitive to 4-hydroxydiamino-pimelic acid may be differentiated from the unaltered parent strain by a delayed growth. […] The strain is identified as DSM13994_Hdap_s.
compound,measurement,value
N[C@H](CC(O)C[C@H](N)C(=O)O)C(=O)O (stereo partly shown) [4-hydroxydiaminopimelic acid],growth of the colonies,substantially delayed growth
